According to article PMC7345095, “New Synthetic Nitro-Pyrrolomycins as Promising Antibacterial and Anticancer Agents” (Antibiotics, 2020):
≈ marks a conversion by molar mass, not a printed value. Where two headings read alike, the source gives them in different places.

Columns and labels:
[1] = test system: Pseudomonas aeruginosa ATCC 10145; assay: Kill curve assay (MBC), planktonic cells; assay type: cell-based; details: for MBC: read-out: MBC P. aeruginosa
Protocol: (§1) Kill curve assays were performed to test the antimicrobial efficacy of pyrrolomycins (i.e., 1, 2, 5a, 5b, 5c, 5d), as well as that of the natural PM-C against the indicator pathogen Staphylococcus aureus ATCC 25923 and Pseudomonas aeruginosa ATCC 10145 strains. Briefly, a single colony of either S. aureus or P. aeruginosa strains was picked up and pre-cultivated (ca. 16 h) at 37 °C with shacking (160 rpm) in Luria Bertani medium (hereinafter named as LB and composed of (g L^−1): sodium chloride, 10; yeast extract, 5; tryptone, 10). The same medium was solidified by adding 15 g L^−1 of bacteriological agar when needed. Bacterial cells were then inoculated (1% v/v) in LB medium amended with increasing concentrations—ranging from 0 to 100 μM as initial concentration—of each pyrrolomycin tested, challenging the cultures for 24 h and incubating them as reported above. The actual number of viable colony forming units per milliliter of culture (CFU mL^−1) of each bacterial strain, who survived the challenge exerted by pyrrolomycins, was evaluated through the spot plate count method and compared to unchallenged cultures, as reported elsewhere. The data are reported as average values (n = 3) of CFU mL^−1 in the logarithmic (Log10) scale with standard deviation (SD). Evaluation of the MIC of PM-5c, and -5d against S. aureus and of PM-5d against P. aeruginosa was performed by incubating 1% (v/v) of an overnight bacterial suspension in LB medium in presence of increasing concentrations of the PMs. As a control, MIC of PM-C was measured. At the time of the inoculum and after overnight challenge, the absorbance of the cultures at 600 nm, which is an indirect way to measure the bacterial cell growth, was registered using a Spark™ 10 M multimode microplate reader measuring. The experiment was carried out in triplicate, being the absorbance corrected by subtracting that of the culture medium amended with the corresponding PM tested.

[2] = test system: Staphylococcus aureus ATCC 25923; assay: Kill curve assay (MBC), planktonic cells; assay type: cell-based
Protocol: as §1

P. aeruginosa = assay: MIC by absorbance at 600 nm after overnight challenge; assay type: cell-based; details: Pseudomonas aeruginosa, LB medium, absorbance 600 nm
Protocol: as §1

S. aureus = assay: as above; assay type: cell-based; details: Staphylococcus aureus, LB medium, absorbance 600 nm
Protocol: as §1

[3] = test system: HCT116 colon cancer cell line; assay: MTT viability assay; assay type: cell-based
Protocol: (§2) The HCT116 colon cancer cell line (ATCC® CCL-247™), the MCF 7 breast cancer cell line (ATCC® HTB-22™) and the hTERT RPE-1 -immortalized retinal pigment epithelial cell line (ATCC® CRL-4000™) used in this study were cultured in DMEM medium (Gibco, Paisley, UK), supplemented with 1% glutamine, 10% heat-inactivated fetal bovine serum and 100U/mL penicillin and 100 μg/mL streptomycin, as already described, and maintained at 37 °C and 5% CO2.
(§3) Cells were plated at 5 × 10^3 cells/well in 96-well plates and incubated for 24 h prior to treatment for further 48 h of different concentrations of PMs. After incubation, a sample of 20 μL of Thiazolyl Blue Tetrazolium Bromide (5 mg mL^−1) in PBS was added to each well and cultured for 2h at 37 °C in CO2 incubator. After removing the medium containing MTT and three washes with PBS, 100 μL of warm DMSO was added to each well to dissolve formazan. Samples were shaken for 10 min, at room temperature in the dark, and the absorbance was recorded at 570 nm using a microplate reader (Spark® 20M Tecan Trading AG, Switzerland). Percentage of cell viability with respect to untreated control cells (vehicle control) was calculated after subtraction of the blank. The IC50 values, that is the concentration necessary to inhibit the 50% of cell growth, was calculated using a dose-response model, obtained from sigmoidal fitting of response curves of percent inhibition versus logarithmic concentration of PMs, using Graph Pad Prism software. Each result represents the mean value of three different experiments performed in triplicate.

[4] = test system: MCF 7 breast cancer cell line; assay: MTT viability assay; assay type: cell-based
Protocol: as §2, §3

[5] = test system: hTERT RPE-1 immortalized retinal pigment epithelial cell line; assay: MTT viability assay (cytotoxicity on normal cells); assay type: cell-based; details: hTERT-RPE1, 48 h, read-out: IC50 hTERT-RPE-1
Protocol: as §2, §3

[6] = test system: HCT116 and MCF 7 cancer cell lines; assay: MTT viability assay, statements over both cancer cell lines; assay type: cell-based
Protocol: as §2, §3

P. aeruginosa cells = assay: AO/EB double staining of bacterial cells; assay type: cell-based, Pseudomonas aeruginosa; details: 100 μM, 24 h
Protocol: It is noteworthy to highlight that the main difference between PM-C and 5d relies only on the presence of the nitro group in the position R3 of the latter, which is likely responsible for its enhanced electronegativity and, therefore, better biological reactivity over PM-C.
Figure 3 Fluorescence micrographs of P. aeruginosa cells treated for 24 h with 100 μM of PM-C or 10 μM of PM 5d after AO/EB double staining. Control represents untreated cells. Green (AO) are viable cells, red (EB) dead cells, and orange vital cells with damaged membranes.

HCT116 cells [7] = assay: Morphological assessment, phase contrast inverted microscope; assay type: cell-based; details: 0.1 µM (sub-inhibitory), 24 h
Protocol: HCT116 cells were seeded in 24 well culture plates with a cell density of 1 × 10^5 cells/well. After 24 h cells were incubated for 24 h with different concentration of the selected PMs, and observed under a phase contrast inverted microscope (Carl Zeiss) at 200× magnification, for morphological changes assessment.

HCT116 cells [8] = assay: Acridine orange/ethidium bromide (AO/EB) staining; assay type: cell-based; details: treated at IC50 for 24 and 48 h
Text: Cells were immediately observed under a fluorescent microscopy (Carl Zeiss) at 630 × magnification.

Escherichia coli = test system: Escherichia coli; parameters: method as in PMID 31405863, PMID 15730262; details: natural PMs; cited from earlier work

SMILES: O=C(c1cc(Cl)c(Cl)[nH]1)c1cc(Cl)cc(Cl)c1O [PM-C, reference compound]
- MBC ([1]; Pseudomonas aeruginosa, ATCC10145, 24 h): > 100 µM
- log reduction in the number of viable CFUs, P. aeruginosa ([1]; highest concentration tested 100 μM, 24 h): did not display any antimicrobial effect
- MBC ([1]; minimal bactericidal concentration, planktonic cells, 24 h challenge, LB medium): >100 µM
- MBC ([2]; Staphylococcus aureus, ATCC25923, 24 h, read-out: MBC S. aureus): 90 µM (≈ 29.2 µg/mL)
- decrease in the number of vital S. aureus cells ([2]; increasing concentrations up to 80 μM, 24 h): ~ 3 log
- MIC (P. aeruginosa): > 40 µM
- MIC (S. aureus): 1 µM (≈ 0.325 µg/mL)
- IC50 ([3]; Homo sapiens, HCT-116, 48 h, MTT, 48 h of treatment): 800 ± 300 nM
- C-SI (Cancer Selectivity Index), HCT116 ([3]; ratio of IC50 of normal hTERT-RPE-1 to that of HCT116, first value of the cell): 10.4
- IC50 ([4]; Homo sapiens, MCF7, 48 h, MTT, 48 h of treatment): 1500 ± 400 nM
- C-SI (Cancer Selectivity Index), MCF 7 ([4]; ratio of IC50 of normal hTERT-RPE-1 to that of MCF 7, second value of the cell): 5.5
- IC50 [5]: 8300 ± 1900 nM
- IC50 ([6]; MTT, 48 h challenge, group statement, read-out: IC50, regardless of the cancer cell line (HCT116, MCF 7)): 800 to 2250 nM
- C-SI, mean value among the two cancer cell lines ([6]; mean of HCT116 and MCF 7 C-SI): 8
- AO/EB staining colour of P. aeruginosa cells (P. aeruginosa cells): appeared green
- morphology of treated HCT116 cells (HCT116 cells [7]): more fibroblastic and less clumped morphology
- AO/EB fluorescence of treated HCT116 cells (type of cell death) (HCT116 cells [8]): orange fluorescence
- MIC against Escherichia coli (Escherichia coli): more than 300 μM
